Source: patent US10130633B2, “Compounds” (BAYER PHARMA AKTIENGESELLSCHAFT, priority 2013, dated 2018)
Where a name gives a salt, the structure may show the parent alone.

Legend:
[1] = tested on: HEK293 FOP control reporter cell line; test: HEK293 FOP control reporter assay; format: cell-based, human; conditions: Homo sapiens, HEK293, 16 h; read-out: HEK FOP IC50
Experimental: Measurement of luciferase expression was done as described for the constitutive active Wnt assay.
(§1) In a parallel approach, HEK293 cells were cotransfected with the FOP control vector and pcDNA3. The FOP vector is identical to the TOP construct, but it contains instead of functional TCF elements a randomized, non-functional sequence. For this transfection a stable transfected cell line was generated as well, based on selection with Geneticin (1 mg/ml).

[2] = tested on: HCT116 FOP control reporter cell line; test: HCT116 FOPFlash control reporter assay (FOP control vector, non-functional TCF elements); format: cell-based; conditions: HCT116 FOP control reporter cells, 36 hours incubation, luciferase expression
Excerpt: as §1, with “HCT116” for “HEK293”, “well.” for “well, based on selection with Geneticin (1 mg/ml).”

[3] = tested on: constitutive active colorectal cancer cell (CRC) Wnt pathway; test: HCT116 TOPFlash cellular reporter assay (Super TopFlash luciferase), constitutive active Wnt pathway; format: cell-based; conditions: HCT116 TOP reporter cells, 36 hours incubation, luciferase expression
Experimental: In order to discover and characterize small molecules which inhibit the constitutive active colorectal cancer cell (CRC) Wnt pathway, a cellular reporter assay was employed. […] Stable transfectants were generated by cotransfection with pcDNA3 and selection of stable transfected cells with 1 mg/ml G418.

Row | IC50 ([2]; Homo sapiens, HCT-116, 36 h) | IC50 ([3]; Homo sapiens, HCT-116, 36 h) | SMILES | IC50 [1] | other results
1 | – | – | O=C(Nc1ccc(OC(F)(F)F)c(NC(=O)C2(N3CCOCC3)CC2)c1)c1ccc(-c2ccccc2)nc1 [Example 61, N-[3-({[1-(morpholin-4-yl)cyclopropyl]carbonyl}amino)-4-(trifluoromethoxy)phenyl]-6-phenylnicotinamide] | ≥ 50 µM | –
2 | – | – | NC(=O)c1ccc(C(=O)Nc2ccc(-c3ccccc3F)nc2)cc1NC(=O)C1(N2CCOCC2)CC1 [Example 75, N^4-[6-(2-fluorophenyl)pyridin-3-yl]-2-({[1-(morpholin-4-yl)cyclopropyl]carbonyl}amino)terephthalamide] | ≥ 50 µM | –
3 | – | – | COc1ccc(NC(=O)c2ncc(-c3ccccc3)o2)cc1NC(=O)CN1CCOCC1 [Example 20, N-{4-methoxy-3-[(morpholin-4-ylacetyl)amino]phenyl}-5-phenyl-1,3-oxazole-2-carboxamide] | ≥ 50 µM | –
4 | – | – | O=C(CN1CCOCC1)Nc1cc(C(=O)Nc2ncc(-c3ccccc3)s2)ccc1OC(F)(F)F [Example 14, 3-[(morpholin-4-ylacetyl)amino]-N-(5-phenyl-1,3-thiazol-2-yl)-4-(trifluoromethoxy)benzamide] | ≥ 50 µM | –
5 | – | – | O=C(Nc1nnc(-c2ccccc2)s1)c1ccc(OC(F)F)c(NC(=O)C2(N3CCN(C4CC4)CC3)CC2)c1 [Example 38, 3-({[1-(4-cyclopropylpiperazin-1-yl)cyclopropyl]carbonyl}amino)-4-(difluoromethoxy)-N-(5-phenyl-1,3,4-thiadiazol-2-yl)benzamide] | ≥ 50 µM | –
6 | – | – | O=C(Nc1ccc(-c2cc(F)cc(F)c2)nc1)c1ccc(OC(F)(F)F)c(NC(=O)C2(N3CCOCC3)CC2)c1 [Example 71, N-[6-(3,5-difluorophenyl)pyridin-3-yl]-3-({[1-(morpholin-4-yl)cyclopropyl]carbonyl}amino)-4-(trifluoromethoxy)benzamide] | ≥ 50 µM | –
7 | – | – | Cc1ccc(C(=O)Nc2ccc(-c3ccccc3F)nc2)cc1NC(=O)C1(N2CCOCC2)CC1 [Example 76, N-[6-(2-fluorophenyl)pyridin-3-yl]-4-methyl-3-({[1-(morpholin-4-yl)cyclopropyl]carbonyl}amino)benzamide] | ≥ 50 µM | –
8 | – | – | O=C(Nc1ccc(-c2ccccc2F)nc1)c1ccc(OC(F)(F)F)c(NC(=O)C2(N3CCN(C4CC4)CC3)CC2)c1 [Example 67, 3-({[1-(4-cyclopropylpiperazin-1-yl)cyclopropyl]carbonyl}amino)-N-[6-(2-fluorophenyl)pyridin-3-yl]-4-(trifluoromethoxy)benzamide] | ≥ 50 µM | –
9 | – | – | O=C(CN1CCOCC1)Nc1cc(NC(=O)c2ccc(-c3cccc(F)c3F)nc2)ccc1OC(F)(F)F [Example 26, 6-(2,3-difluorophenyl)-N-{3-[(morpholin-4-ylacetyl)amino]-4-(trifluoromethoxy)phenyl}nicotinamide] | ≥ 50 µM | –
10 | – | – | O=C(Nc1nnc(-c2ccccc2)s1)c1ccc(OC(F)F)c(NC(=O)C2(N3CCOCC3)CC2)c1 [Example 37, 4-(difluoromethoxy)-3-({[1-(morpholin-4-yl)cyclopropyl]carbonyl}amino)-N-(5-phenyl-1,3,4-thiadiazol-2-yl)benzamide] | ≥ 50 µM | –
11 | – | – | CN1CCN(CC(=O)Nc2cc(C(=O)Nc3nnc(-c4cccc(Cl)c4)s3)ccc2OC(F)(F)F)CC1 [Example 151, N-[5-(3-chlorophenyl)-1,3,4-thiadiazol-2-yl]-3-{[(4-methylpiperazin-1-yl)acetyl]amino}-4-(trifluoromethoxy)benzamide] | ≥ 50 µM | –
12 | – | – | O=C(Nc1ccc(-c2ccccc2F)nc1)c1ccc(OC(F)(F)F)c(NC(=O)C2(N3CCOCC3)CC2)c1 [Example 68, N-[6-(2-fluorophenyl)pyridin-3-yl]-3-({[1-(morpholin-4-yl)cyclopropyl]carbonyl}amino)-4-(trifluoromethoxy)benzamide] | ≥ 50 µM | –
13 | – | – | O=C(CN1CCN(C2CC2)CC1)Nc1cc(C(=O)Nc2ccc(-c3ccccc3F)nc2)ccc1OC(F)(F)F [Example 63, 3-{[(4-cyclopropylpiperazin-1-yl)acetyl]amino}-N-[6-(2-fluorophenyl)pyridin-3-yl]-4-(trifluoromethoxy)benzamide] | ≥ 50 µM | –
14 | – | – | O=C(CN1CCN(C2CC2)CC1)Nc1cc(C(=O)Nc2nnc(-c3ccccc3)s2)ccc1OC(F)(F)F [Example 53, 3-{[(4-cyclopropylpiperazin-1-yl)acetyl]amino}-N-(5-phenyl-1,3,4-thiadiazol-2-yl)-4-(trifluoromethoxy)benzamide] | ≥ 50 µM | –
15 | – | – | CC(C(=O)Nc1cc(C(=O)Nc2ccc(-c3ccccc3F)nc2)ccc1OC(F)(F)F)N1CCN(C)CC1 (stereo not shown) [Example 64, N-[6-(2-fluorophenyl)pyridin-3-yl]-3-{[2-(4-methylpiperazin-1-yl)propanoyl]amino}-4-(trifluoromethoxy)benzamide] | ≥ 50 µM | –
16 | – | – | O=C(CN1CCN(C2CC2)CC1)Nc1cc(C(=O)Nc2nnc(-c3ccccc3)s2)ccc1OC(F)F [Example 41, 3-{[(4-cyclopropylpiperazin-1-yl)acetyl]amino}-4-(difluoromethoxy)-N-(5-phenyl-1,3,4-thiadiazol-2-yl)benzamide] | ≥ 50 µM | –
17 | ≥ 50 µM | 0.433 µM | CN1CCN(CC(=O)Nc2cc(C(=O)Nc3nnc(-c4ccccc4)s3)ccc2Br)CC1 [Example 94, 4-bromo-3-{[(4-methylpiperazin-1-yl)acetyl]amino}-N-(5-phenyl-1,3,4-thiadiazol-2-yl)benzamide] | – | –
18 | 13 µM | 0.139 µM | O=C(CN1CCOCC1)Nc1cc(C(=O)Nc2ccc(-c3ccccc3F)nc2)ccc1OC(F)F [Example 237, 4-(difluoromethoxy)-N-[6-(2-fluorophenyl)pyridin-3-yl]-3-[(morpholin-4-ylacetyl)amino]benzamide] | – | –
19 | – | – | CC(C(=O)Nc1cc(NC(=O)c2ccc(-c3ccccc3F)nc2)ccc1OC(F)(F)F)N1CC2CCC(C1)O2 (stereo not shown) [Example 205, 6-(2-fluorophenyl)-N-[3-{[2-(8-oxa-3-azabicyclo[3.2.1]oct-3-yl)propanoyl]amino}-4-(trifluoromethoxy)phenyl] nicotinamide] | – | IC50 [2]: 18.2 µM; IC50 [3]: 0.0202 µM
20 | ≥ 50 µM | 0.156 µM | O=C(CN1CCOCC1)Nc1cc(NC(=O)c2ccc(-c3c(F)cccc3F)nc2)ccc1OC(F)(F)F [Example 29, 6-(2,6-difluorophenyl)-N-{3-[(morpholin-4-ylacetyl)amino]-4-(trifluoromethoxy)phenyl}nicotinamide] | – | –
21 | – | – | CC(C(=O)Nc1cc(NC(=O)c2ccc(-c3ccccc3F)nc2)ccc1OC(F)(F)F)N1CCOCC1 (stereo not shown) [Example 224, 6-(2-fluorophenyl)-N-[3-{[2-(morpholin-4-yl)propanoyl]amino}-4-(trifluoromethoxy)phenyl] nicotinamide] | – | IC50 [2]: ≥ 50 µM; IC50 [3]: 0.382 µM
22 | 7.1 µM | 0.215 µM | Cc1ccccc1-c1nnc(NC(=O)c2ccc(OC(F)F)c(NC(=O)CN3CCN(C)CC3)c2)s1 [Example 175, 4-(difluoromethoxy)-N-[5-(2-methylphenyl)-1,3,4-thiadiazol-2-yl]-3-{[(4-methylpiperazin-1-yl)acetyl]amino}benzamide] | – | –
23 | ≥ 50 µM | 2.55 µM | COc1ccc(C(=O)Nc2ccc(-c3ccccc3F)nc2)cc1NC(=O)C1(N2CCOCC2)CCC1 [Example 82, N-[6-(2-fluorophenyl)pyridin-3-yl]-4-methoxy-3-({[1-(morpholin-4-yl)cyclobutyl]carbonyl}amino)benzamide] | – | –
24 | 17.1 µM | 0.238 µM | CC(C(=O)Nc1cc(C(=O)Nc2ccc(-c3cc(F)cc(F)c3)nc2)ccc1OC(F)(F)F)N1C[C@@H]2C[C@H]1CO2 (stereo partly drawn) [Example 223, N-[6-(3,5-difluorophenyl)pyridin-3-yl]-3-({2-[(1S,4S)-2-oxa-5-azabicyclo[2.2.1]hept-5-yl]propanoyl}amino)-4-(trifluoromethoxy)benzamide] | – | –
25 | ≥ 50 µM | 0.985 µM | O=C(CN1CCN(CC(F)(F)F)CC1)Nc1cc(C(=O)Nc2ccc(-c3ccccc3F)nc2)ccc1OC(F)(F)F [Example 233, N-[6-(2-fluorophenyl)pyridin-3-yl]-3-({[4-(2,2,2-trifluoroethyl)piperazin-1-yl]acetyl}amino)-4-(trifluoromethoxy)benzamide] | – | –
26 | – | – | CC(C(=O)Nc1cc(C(=O)Nc2ccc(-c3ccccc3F)nc2)ccc1OC(F)(F)F)N1CCN(C2CC2)CC1 (stereo not shown) [Example 249, 3-{[2-(4-cyclopropylpiperazin-1-yl)propanoyl]amino}-N-[6-(2-fluorophenyl)pyridin-3-yl]-4-(trifluoromethoxy)benzamide] | – | IC50 [2]: 38 µM; IC50 [3]: 0.198 µM
27 | 15 µM | 0.144 µM | CC(C(=O)Nc1cc(NC(=O)c2ccc(-c3cc(F)cc(F)c3)nc2)ccc1OC(F)(F)F)N1C[C@@H]2C[C@H]1CO2 (stereo partly drawn) [Example 198, 6-(3,5-difluorophenyl)-N-[3-({2-[(1S,4S)-2-oxa-5-azabicyclo[2.2.1]hept-5-yl]propanoyl}amino)-4-(trifluoromethoxy)phenyl] nicotinamide] | – | –

Row | SMILES | IC50 ([2]; Homo sapiens, HCT-116, 36 h) | IC50 ([3]; Homo sapiens, HCT-116, 36 h) | IC50 [1] | other results
28 | COCc1ccc(C(=O)Nc2nnc(-c3ccccc3C)s2)cc1NC(=O)C1(N2CCN(C)CC2)CC1 [Example 258, 4-(methoxymethyl)-N-[5-(2-methylphenyl)-1,3,4-thiadiazol-2-yl]-3-({[1-(4-methylpiperazin-1-yl)cyclopropyl]carbonyl}amino)benzamide trifluoroacetate (1:1)] | 24 µM | 0.0455 µM | – | –
